Assays:
HT-29 = test: Cytotoxicity against human HT-29 cells assessed as inhibition of cell growth incubated for 72 hrs by MTT assay; assay type: functional, cell-based; conditions: HT-29, 72 h
HCT-116 = test: Cytotoxicity against human HCT-116 cells assessed as inhibition of cell growth incubated for 72 hrs by MTT assay; assay type: functional, cell-based; conditions: HCT-116, 72 h

Structure (SMILES) | IC50 (HT-29) [µM] | IC50 (HCT-116) [µM]
CC[C@@]12CCC[N+]3([O-])CC[C@@]4(C(=Nc5ccccc54)[C@@H](O)C1)[C@@H]23 (stereo partly specified) | > 10 | > 10
CC[C@]1(CCC(=O)OC)CCCNC1 | > 10 | > 10
CC[C@@]12CCO[C@@H]1N(CC[C@]1(O)C(=O)Nc3ccccc31)CC[C@H]2O | > 10 | > 10
COC(=O)[C@H]1CO[C@H](C)[C@]2(O)C[N@+]3([O-])CCc4c([nH]c5ccccc45)[C@@H]3C[C@H]12 | > 10 | > 10
CC[C@@]12CCC[N@@+]3([O-])C[C@@H]4[C@@](O)(c5ccccc5N[C@]4(O)CC1)[C@@H]23 | 7.1 | > 10
CC[C@]12CCCN[C@]13/C(=C\C(=O)O)c1ccccc1N3C(=O)CC2 | > 10 | > 10
CC[C@]12CCCN(C1)C(=O)CC2 | 7.2 | > 10
COc1cccc2c1C(=O)c1c(O)c3c(c(O)c1C2=O)C[C@@](O)(C(=O)CO)C[C@@H]3O[C@H]1C[C@H](N)[C@H](O)[C@H](C)O1 [DOXORUBICIN] | 0.06 | 0.04
